35 compounds from patent publication US20240166635A1, “AMINOHETEROARYL KINASE INHIBITORS” (Anrui Biomedical Technology (Guangzhou) Co.,Ltd., priority 2020, published 2024) can be followed below.

Holding throughout (format): biochemical
In experiment [1] the target is CDK7/CyclinH/MAT1 (Homo sapiens (Human), UniProt P50613). Kind of experiment: CDK7/CyclinH/MAT1 kinase inhibitory activity (Caliper mobility shift).
Experiment [2] deals with CDK6/CyclinD1 (Homo sapiens (Human), UniProt Q00534). Put plainly: CDK6/CyclinD1 kinase inhibitory activity (Caliper mobility shift). Conditions: read-out: CDK6/Cyclin D1 IC50.
Sequence of CDK6/CyclinD1 (Q00534 whole entry): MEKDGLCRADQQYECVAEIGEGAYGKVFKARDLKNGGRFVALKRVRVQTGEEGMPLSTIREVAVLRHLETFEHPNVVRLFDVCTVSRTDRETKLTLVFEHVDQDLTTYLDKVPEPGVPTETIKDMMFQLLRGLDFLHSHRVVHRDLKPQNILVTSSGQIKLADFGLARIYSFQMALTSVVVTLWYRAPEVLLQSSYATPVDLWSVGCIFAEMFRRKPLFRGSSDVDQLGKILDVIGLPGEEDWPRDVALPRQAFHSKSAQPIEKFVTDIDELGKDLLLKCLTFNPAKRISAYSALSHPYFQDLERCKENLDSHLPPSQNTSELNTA
Sequence of CDK6/CyclinD1 (P24385 whole entry partner): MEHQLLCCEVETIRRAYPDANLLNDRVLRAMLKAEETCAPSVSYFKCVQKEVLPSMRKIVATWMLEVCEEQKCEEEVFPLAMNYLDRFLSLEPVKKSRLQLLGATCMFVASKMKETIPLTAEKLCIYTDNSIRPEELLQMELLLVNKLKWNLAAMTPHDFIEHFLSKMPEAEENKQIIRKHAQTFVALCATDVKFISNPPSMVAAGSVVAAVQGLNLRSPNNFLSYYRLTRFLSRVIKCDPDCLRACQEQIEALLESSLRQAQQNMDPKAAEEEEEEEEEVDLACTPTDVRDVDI
Experiment [3] concerns the target CDK1/CyclinB (Homo sapiens (Human), UniProt P06493). Kind of experiment: CDK1/CyclinB kinase inhibitory activity (Caliper mobility shift). The note with it: read-out: CDK1/Cyclin B1 IC50.
Experiment [4] has as its target CDK2/CyclinE1 (Homo sapiens (Human), UniProt P24941). Kind of experiment: CDK2/CyclinE1 kinase inhibitory activity (Caliper mobility shift). The note with it: read-out: CDK2/Cyclin El IC50.
The target in experiment [5] is CDK9/CyclinT1 (Homo sapiens (Human), UniProt P50750). Put plainly: CDK9/CyclinT1 kinase inhibitory activity (Caliper mobility shift). Conditions: read-out: CDK9/Cyclin T1 IC50.
Sequence of CDK9/CyclinT1 (P50750 whole entry): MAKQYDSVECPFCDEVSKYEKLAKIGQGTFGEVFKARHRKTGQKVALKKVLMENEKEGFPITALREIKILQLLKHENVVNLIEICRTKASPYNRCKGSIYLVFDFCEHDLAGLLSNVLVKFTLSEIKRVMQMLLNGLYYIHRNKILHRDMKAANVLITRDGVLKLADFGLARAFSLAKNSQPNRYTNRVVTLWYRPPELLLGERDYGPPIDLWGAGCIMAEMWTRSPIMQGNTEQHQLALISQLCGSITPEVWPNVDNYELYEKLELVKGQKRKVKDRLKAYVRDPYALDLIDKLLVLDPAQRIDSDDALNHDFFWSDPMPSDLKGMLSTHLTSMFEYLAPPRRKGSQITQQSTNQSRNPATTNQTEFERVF
Sequence of CDK9/CyclinT1 (O60563 whole entry partner): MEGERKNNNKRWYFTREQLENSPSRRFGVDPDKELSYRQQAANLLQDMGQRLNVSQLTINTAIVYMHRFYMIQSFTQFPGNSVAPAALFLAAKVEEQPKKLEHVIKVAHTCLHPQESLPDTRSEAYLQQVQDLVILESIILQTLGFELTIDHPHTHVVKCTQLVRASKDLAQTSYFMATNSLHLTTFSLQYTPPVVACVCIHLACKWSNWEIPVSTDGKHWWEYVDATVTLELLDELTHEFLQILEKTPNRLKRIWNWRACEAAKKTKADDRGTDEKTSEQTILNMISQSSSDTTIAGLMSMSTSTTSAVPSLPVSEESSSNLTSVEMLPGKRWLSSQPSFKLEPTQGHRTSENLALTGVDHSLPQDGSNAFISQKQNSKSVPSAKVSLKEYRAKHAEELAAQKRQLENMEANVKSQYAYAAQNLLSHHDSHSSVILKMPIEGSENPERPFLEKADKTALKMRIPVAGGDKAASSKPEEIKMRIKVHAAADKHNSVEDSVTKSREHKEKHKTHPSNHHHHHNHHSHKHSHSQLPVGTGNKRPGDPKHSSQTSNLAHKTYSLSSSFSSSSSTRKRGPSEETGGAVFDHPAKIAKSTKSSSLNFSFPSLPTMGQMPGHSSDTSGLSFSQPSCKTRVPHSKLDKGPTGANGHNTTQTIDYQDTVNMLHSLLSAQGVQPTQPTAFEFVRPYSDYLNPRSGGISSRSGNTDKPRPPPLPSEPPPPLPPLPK

Sequence of CDK1/CyclinB (P06493 whole entry): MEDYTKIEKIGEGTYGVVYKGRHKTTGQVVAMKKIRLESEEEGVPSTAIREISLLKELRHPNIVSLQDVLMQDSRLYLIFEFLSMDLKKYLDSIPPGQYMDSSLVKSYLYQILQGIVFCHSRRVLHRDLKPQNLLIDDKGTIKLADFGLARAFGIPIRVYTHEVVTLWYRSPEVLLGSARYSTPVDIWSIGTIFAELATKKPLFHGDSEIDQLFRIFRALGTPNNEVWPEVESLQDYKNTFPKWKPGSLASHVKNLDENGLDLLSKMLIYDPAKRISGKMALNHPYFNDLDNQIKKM
Sequence of CDK1/CyclinB (P14635 whole entry partner): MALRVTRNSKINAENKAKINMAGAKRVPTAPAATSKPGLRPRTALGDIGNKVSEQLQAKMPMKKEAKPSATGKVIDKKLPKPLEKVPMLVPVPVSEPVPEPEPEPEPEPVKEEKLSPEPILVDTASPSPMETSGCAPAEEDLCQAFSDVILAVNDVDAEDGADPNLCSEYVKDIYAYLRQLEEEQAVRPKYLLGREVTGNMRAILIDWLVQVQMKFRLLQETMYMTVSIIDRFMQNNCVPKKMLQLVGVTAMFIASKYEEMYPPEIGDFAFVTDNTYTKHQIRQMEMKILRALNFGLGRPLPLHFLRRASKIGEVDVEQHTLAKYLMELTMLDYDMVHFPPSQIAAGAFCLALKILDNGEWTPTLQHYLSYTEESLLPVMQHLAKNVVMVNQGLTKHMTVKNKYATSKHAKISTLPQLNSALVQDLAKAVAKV
Sequence of CDK7/CyclinH/MAT1 (P50613 whole entry): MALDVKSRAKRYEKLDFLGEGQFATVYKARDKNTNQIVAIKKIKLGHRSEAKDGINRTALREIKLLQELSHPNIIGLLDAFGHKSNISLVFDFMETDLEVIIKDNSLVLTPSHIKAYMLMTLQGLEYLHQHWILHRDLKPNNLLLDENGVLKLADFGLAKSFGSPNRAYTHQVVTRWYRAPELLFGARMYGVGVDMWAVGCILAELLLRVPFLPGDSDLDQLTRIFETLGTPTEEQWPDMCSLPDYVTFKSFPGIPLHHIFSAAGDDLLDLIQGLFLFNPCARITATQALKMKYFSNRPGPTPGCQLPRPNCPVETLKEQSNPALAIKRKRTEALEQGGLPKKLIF
Sequence of CDK7/CyclinH/MAT1 (P51946 whole entry partner): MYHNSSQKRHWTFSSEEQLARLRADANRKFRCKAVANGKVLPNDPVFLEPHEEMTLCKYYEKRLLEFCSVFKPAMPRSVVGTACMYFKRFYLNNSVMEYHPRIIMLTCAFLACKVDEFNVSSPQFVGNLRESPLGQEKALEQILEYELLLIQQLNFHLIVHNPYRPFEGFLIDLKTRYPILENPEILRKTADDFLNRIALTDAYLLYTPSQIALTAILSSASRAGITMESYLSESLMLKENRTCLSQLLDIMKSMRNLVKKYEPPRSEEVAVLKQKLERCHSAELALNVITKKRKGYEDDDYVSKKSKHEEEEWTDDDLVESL
Sequence of CDK7/CyclinH/MAT1 (P51948 whole entry partner): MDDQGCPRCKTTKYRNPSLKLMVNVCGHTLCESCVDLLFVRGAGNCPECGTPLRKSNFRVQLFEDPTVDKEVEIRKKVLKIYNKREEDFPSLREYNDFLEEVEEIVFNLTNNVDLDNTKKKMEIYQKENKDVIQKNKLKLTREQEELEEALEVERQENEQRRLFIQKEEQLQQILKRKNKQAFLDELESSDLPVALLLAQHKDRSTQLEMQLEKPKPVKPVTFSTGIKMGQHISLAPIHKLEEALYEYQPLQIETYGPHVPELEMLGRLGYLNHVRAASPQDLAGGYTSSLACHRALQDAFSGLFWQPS

Regarding `[2H]C([2H])([2H])NS(=O)(=O)c1ccc(Nc2ncc(C(F)(F)F)c(OC3CCOCCC3O)n2)cc1` (single isomer, unassigned) [Example 102b, 4-((4-((5-hydroxyoxepan-4-yl)oxy)-5-(trifluoromethyl)pyrimidin-2-yl)amino)-N-(methyl-d3)benzenesulfonamide], the values for the IC50 in experiment [1], in experiment [2] and in experiment [3] were 100 to 1000 nM, 100 to 1000 nM and 10 to 100 nM, respectively.

For the compound `[2H]C([2H])([2H])NS(=O)(=O)c1ccc(Nc2ncc(C(F)(F)F)c(OC3CCOCCC3O)n2)cc1` (single isomer, unassigned) [Example 102c, 4-((4-((5-hydroxyoxepan-4-yl)oxy)-5-(trifluoromethyl)pyrimidin-2-yl)amino)-N-(methyl-d3)benzenesulfonamide], the IC50 in experiment [1] was not below 1000 nM; in experiment [2] it was 100 to 1000 nM; in experiment [3] it was 100 to 1000 nM.

Regarding `[2H]C([2H])([2H])NS(=O)(=O)c1ccc(Nc2ncc(C(F)(F)F)c(OC3CCOCCC3O)n2)cc1` (single isomer, unassigned) [Example 102d, 4-((4-((5-hydroxyoxepan-4-yl)oxy)-5-(trifluoromethyl)pyrimidin-2-yl)amino)-N-(methyl-d3)benzenesulfonamide], the IC50 in experiment [1] was not below 1000 nM; in experiment [2] it was 100 to 1000 nM; in experiment [3], 100 to 1000 nM.

Take `CNS(=O)(=O)c1ccc(Nc2ncc(C(F)(F)F)c(O[C@H]3CCCOC[C@H]3O)n2)cc1` (single isomer, unassigned) [Example 103b, cis-4-((4-((3-hydroxyoxepan-4-yl)oxy)-5-(trifluoromethyl)pyrimidin-2-yl)amino)-N-(methyl-d3)benzenesulfonamide]: the IC50 in experiment [2] was 100 to 1000 nM; in experiment [4], less than 10 nM.

As for `NS(=O)(=O)c1ccc(Nc2ncc(C(F)(F)F)c(OC3COCCC3O)n2)cc1` (single isomer, unassigned) [Example 115a], the values for the IC50 in experiment [1], in experiment [3] and in experiment [4] were 10 to 100 nM, 10 to 100 nM and less than 10 nM, respectively.

In the case of `NS(=O)(=O)c1ccc(Nc2ncc(C(F)(F)F)c(OC3CCCCCC3O)n2)cc1` (single isomer, unassigned) [Example 118a], the IC50 is 100 to 1000 nM in experiment [1], less than 10 nM in experiment [3], less than 10 nM in experiment [5] and less than 10 nM in experiment [4].

As to `CS(=O)(=O)N1CCC(Nc2ncc(C(F)(F)F)c(OC3CCCCCC3O)n2)CC1` (single isomer, unassigned) [Example 121a], the IC50 is 10 to 100 nM in experiment [1], 10 to 100 nM in experiment [3], 100 to 1000 nM in experiment [5] and less than 10 nM in experiment [4].

Regarding `NS(=O)(=O)N1CCC(Nc2ncc(C(F)(F)F)c(OC3CCCCCC3O)n2)CC1` (single isomer, unassigned) [Example 122b], the IC50 in experiment [1] is 10 to 100 nM; in experiment [3], 10 to 100 nM; in experiment [5], 10 to 100 nM; in experiment [4] it was less than 10 nM.

For the compound `[2H]C([2H])([2H])NS(=O)(=O)c1ccc(Nc2ncc(Cl)c(OC3COCC3(C)O)n2)cc1` (single isomer, unassigned) [Example 140b], the values for the IC50 in experiment [3], in experiment [5] and in experiment [4] were not below 1000 nM, not below 1000 nM and 10 to 100 nM, respectively.

Consider `NS(=O)(=O)c1ccc(Nc2ncc(Br)c(OC3CCCC3O)n2)cc1` (single isomer, unassigned) [Example 141b], for which the IC50 is 10 to 100 nM in experiment [3], 100 to 1000 nM in experiment [5] and less than 10 nM in experiment [4].

In the case of `CNS(=O)(=O)c1ccc(Nc2ncc(Br)c(OC3CCCC3O)n2)cc1` (single isomer, unassigned) [Example 142b], the IC50 was 10 to 100 nM in experiment [3], 100 to 1000 nM in experiment [5] and less than 10 nM in experiment [4].

`[2H]C([2H])([2H])NS(=O)(=O)c1ccc(Nc2ncc(Br)c(OC3CCCC3O)n2)cc1` (single isomer, unassigned) [Example 143b]: the IC50 in experiment [3] is 100 to 1000 nM; in experiment [5], 100 to 1000 nM; in experiment [4] it was less than 10 nM.

Turning to `Cn1cc(S(=O)(=O)N2CCC(Nc3ncc(Br)c(OC4CCCCC4O)n3)CC2)cn1` (single isomer, unassigned) [Example 144a], the figures for the IC50 in experiment [3], in experiment [5] and in experiment [4] were 100 to 1000 nM, not below 1000 nM and 10 to 100 nM, respectively.

As to `CS(=O)(=O)N1CCC(Nc2ncc(Br)c(OC3CCCCCC3O)n2)CC1` (single isomer, unassigned) [Example 145a], the IC50 in experiment [3] was 100 to 1000 nM; in experiment [5], not below 1000 nM; in experiment [4], 10 to 100 nM.

As to `Cc1cnc(Nc2ccc(S(=O)(=O)NC3CC3)cc2)nc1OC1CCCC1O` (single isomer, unassigned) [Example 146b], the IC50 was 100 to 1000 nM in experiment [3], not below 1000 nM in experiment [5] and 10 to 100 nM in experiment [4].

As to `Cc1cnc(Nc2ccc(S(=O)(=O)NC(C)C)cc2)nc1OC1CCCC1O` (single isomer, unassigned) [Example 147b], the figures for the IC50 in experiment [3], in experiment [5] and in experiment [4] were 100 to 1000 nM, 100 to 1000 nM and 10 to 100 nM, respectively.

Consider `[2H]C([2H])([2H])NS(=O)(=O)c1ccc(Nc2ncc(C)c(OC3CCCC3O)n2)cc1` (single isomer, unassigned) [Example 148b], for which the IC50 in experiment [3] was 100 to 1000 nM; in experiment [5], not below 1000 nM; in experiment [4] it was 10 to 100 nM.

Take `[2H]C([2H])([2H])NS(=O)(=O)c1ccc(Nc2ncc(CC)c(OC3CCCC3O)n2)cc1` (single isomer, unassigned) [Example 149b]: the IC50 in experiment [3] lay in the range of 100 to 1000 nM; in experiment [5], 100 to 1000 nM; in experiment [4] it was 10 to 100 nM.

`[2H]C([2H])([2H])NS(=O)(=O)c1ccc(Nc2ncc(CC)c(OC3CCOCC3O)n2)cc1` (single isomer, unassigned) [Example 151b]: the IC50 was not below 1000 nM in experiment [3], not below 1000 nM in experiment [5] and 10 to 100 nM in experiment [4].

Regarding `[2H]C([2H])([2H])NS(=O)(=O)c1ccc(Nc2ncc(CC)c(OC3CCOCC3(C)O)n2)cc1` (single isomer, unassigned) [Example 152a], the IC50 is less than 10 nM in experiment [3], 10 to 100 nM in experiment [5] and less than 10 nM in experiment [4].

Regarding `[2H]C([2H])([2H])NS(=O)(=O)c1ccc(Nc2ncc(CC)c(OC3CCOCC3(C)O)n2)cc1` (single isomer, unassigned) [Example 152b], the IC50 is not below 1000 nM in experiment [3], not below 1000 nM in experiment [5] and 10 to 100 nM in experiment [4].

`[2H]C([2H])([2H])NS(=O)(=O)c1ccc(Nc2ncc(CC)c(OC3COCCC3(C)O)n2)cc1` (single isomer, unassigned) [Example 153b]: the values for the IC50 in experiment [3], in experiment [5] and in experiment [4] were not below 1000 nM, not below 1000 nM and 10 to 100 nM, respectively.

For `CC1(O)CCCC1Oc1nc(Nc2ccc(S(N)(=O)=O)cc2)ncc1C1CC1` (single isomer, unassigned) [Example 154b], the values for the IC50 in experiment [3], in experiment [5] and in experiment [4] were 10 to 100 nM, 100 to 1000 nM and less than 10 nM, respectively.

Turning to `C=Cc1cnc(Nc2ccc(S(N)(=O)=O)cc2)nc1OC1CCCC1O` (single isomer, unassigned) [Example 155b], the IC50 in experiment [3] is 100 to 1000 nM; in experiment [5], 100 to 1000 nM; in experiment [4], less than 10 nM.

Take `CC1CCCC1Oc1nc(Nc2ccc(S(N)(=O)=O)cc2)ncc1C#N` (stereo not drawn) [Example 11]: the IC50 is less than 10 nM in experiment [3], 10 to 100 nM in experiment [5] and less than 10 nM in experiment [4].

For the compound `CC(C)NS(=O)(=O)c1ccc(Nc2ncc(C#N)c(OC3CCCC3)n2)cc1` [Example 28], the IC50 was 10 to 100 nM in experiment [3], 100 to 1000 nM in experiment [5] and less than 10 nM in experiment [4].

On to `N#Cc1cnc(Nc2ccc(S(N)(=O)=O)cc2)nc1N1CCCC1` [Example 67], for which the IC50 in experiment [1] was not below 1000 nM; in experiment [3], 100 to 1000 nM; in experiment [5], 100 to 1000 nM; in experiment [4], 10 to 100 nM.

On to `N#Cc1cnc(Nc2ccc(S(N)(=O)=O)cc2)nc1N1CCC[C@H](O)C1` [Example 69], for which the IC50 is 100 to 1000 nM in experiment [1], 10 to 100 nM in experiment [3], 100 to 1000 nM in experiment [5] and less than 10 nM in experiment [4].

Consider `N#Cc1cnc(Nc2ccc(S(N)(=O)=O)cc2)nc1N1CCC[C@@H](O)C1` [Example 70], for which the IC50 in experiment [1] is not below 1000 nM; in experiment [3] it was 100 to 1000 nM; in experiment [5], 100 to 1000 nM; in experiment [4], 10 to 100 nM.

As for `C[C@@H]1C[C@H](O)CCN1c1nc(Nc2ccc(S(N)(=O)=O)cc2)ncc1C#N` [Example 75], the IC50 was 10 to 100 nM in experiment [3], 10 to 100 nM in experiment [5] and less than 10 nM in experiment [4].

Regarding `C[C@@H]1C[C@@H](O)CCN1c1nc(Nc2ccc(S(N)(=O)=O)cc2)ncc1C#N` [Example 76], the IC50 in experiment [3] was in the range of 100 to 1000 nM; in experiment [5] it was 100 to 1000 nM; in experiment [4] it was 10 to 100 nM.

With `C[C@@H]1CC[C@H](O)CN1c1nc(Nc2ccc(S(N)(=O)=O)cc2)ncc1C#N` [Example 77], the values for the IC50 in experiment [3], in experiment [5] and in experiment [4] were 10 to 100 nM, 10 to 100 nM and less than 10 nM, respectively.

With `N#Cc1cnc(Nc2ccc(S(N)(=O)=O)cc2)nc1N1CCC[C@H](CO)C1` [Example 78], the IC50 in experiment [3] was 10 to 100 nM; in experiment [5], 100 to 1000 nM; in experiment [4], less than 10 nM.

Take `N#Cc1cnc(Nc2ccc(S(N)(=O)=O)cc2)nc1N1CCC[C@@H](CO)C1` [Example 79]: the IC50 in experiment [3] lay in the range of 100 to 1000 nM; in experiment [5], 100 to 1000 nM; in experiment [4] it was 10 to 100 nM.

Consider `CS(=O)(=O)N1CCC(Nc2ncc(C#N)c(N3CCCCC3)n2)CC1` [Example 89], for which the IC50 in experiment [1] is not below 1000 nM; in experiment [3], 100 to 1000 nM; in experiment [5], not below 1000 nM; in experiment [4], 10 to 100 nM.
